pIC50: −log10 of the molar value. Converted amounts (≈) assume the structure as drawn.
Columns and labels:
[1] = tested on: Blumeria graminis f sp. hordei; assay: Foliar protection test, barley powdery mildew control; assay type: in vivo, Blumeria graminis f sp. hordei on Hordeum vulgare cv. Perry; settings: 168 h, compound concentration 50 ppm, foliar spray, evaluated 7 days after inoculation, read-out: Barley Powdery Mildew Control at 50 ppm
Experimental: Compounds of the present invention were evaluated in a foliar protection test to determine the ability to control barley powdery mildew. Plants (Hordeum vulgare cv. Perry) were grown for 6 days in 2-inch square pots containing Metromix 200 medium amended with fertilizer. For propagation, plants were maintained in a growth chamber at conditions of 20 to 21° C., 16 hour light cycle, 400 uM of light, 70% humidity, and with sub-irrigation as needed. After inoculation with the pathogen of Blumeria graminis f sp. hordei, plants were kept at conditions of 20 to 22° C., 70% relative humidity, and 200 uM of light to facilitate infection and disease development. At 6 days after planting (1st true leaf fully expanded), the test compounds were dissolved in a solution of 5% acetone and 0.005% Tween 80 surfactant. An atomizer was used for applying the solution onto both sides of the leaves until thoroughly wetted. The amount of the compound applied to the leaves was typically 200, 100, 50, 10, or 2 ppm, but it may vary. At 24 hours after treatment, the plants were moved to a cooler chamber and inoculated by shaking well-colonized, untreated stock plants above the treated plants. This allowed producing a settling cloud of spores and resulting in uniform infection. Efficacy was evaluated in 7 days later by examining leaves for colonization and growth of mildew. Table 5 lists the results of barley powdery mildew control at a compound concentration of 50 ppm or 10 ppm. Compounds having an activity designated as “AA” provided a compound having >85% control of barley powdery mildew; compounds having an activity designated as “A” provided a compound having from 70% to 84% control of barley powdery mildew; compounds having an activity designated as “B” provided a compound having from 50 to 69% control of barley powdery mildew; compounds having an activity designated as “C” provided a compound having from 25 to 49% control of barley powdery mildew; and compounds having an activity designated as “D” provided a compound having <25% control of barley powdery mildew.

[2] = tested on: C. parapsilosis ATCC 22019; assay: Anti-Fungal Activity Assay (broth microtiter MIC), C. parapsilosis; assay type: cell-based, Candida parapsilosis; settings: Lodderomyces parapsilosis, ATCC22019, 48 h, 3 replicates; MIC recorded at 48 h; read-out: MIC C. parapsilosis ATCC 22019
Procedure, shortened: (§1)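 Susceptibility testing used direct colony suspensions in RPMI 1640+MOPS from Sabouraud dextrose agar grown at 35° C. Endpoints were visual MICs at 48 h under CLSI M27-A3 microtiter conditions, plus a 24 h reading for soraphen.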

[3] = tested on: Phytophthora capsici (Pc); assay: Growth inhibition assay of fungal pathogens, Pc; assay type: cell-based; settings: 48 hours, read-out: Concentration at 90% Inhibition, Pc
Experimental: (§2) Compounds of the present invention were evaluated in a growth inhibition assay to determine the ability to control the growth of fungal pathogens, such as Botrtyis cinerea (Bc). Collectotrichum graminicola (Cg), Diplodia maydis (Dm), Fusarium moniliforme (Fm), Fusarium virguliforme (Fv), Phytophthora capsici (Pc), Rhizoctonia solani (Rs), and Septoria tritici (St). Compounds to be tested were dissolved in DMSO at 2.5 mg/ml to produce compound stock solutions (“stocks”). Stocks were diluted with DMSO by a five-fold dilution in a 96-well stock plate, and two sets of final concentrations of 50, 10, and 2 ppm or 2, 0.4, and 0.08 ppm were obtained in vitro. A set of positive controls was also prepared, with various concentrations of Soraphen (2, 0.4, and 0.08 ppm), Metalaxyl (1.1, 0.22, and 0.04 ppm), and Metconazole (2, 0.4, and 0.08 ppm or 0.2, 0.04, and 0.008 ppm) after the five-fold dilutions. Negative controls on each plate included 2% DMSO, water, and a blank (media+2% DMSO). Fungal spores were isolated from previously sub-cultured plates of Botrtyis cinerea (Bc), Collectotrichum graminicola (Cg), Diplodia maydis (Dm), Fusarium moniliforme (Fm), Fusarium virguliforme (Fv), Phytophthora capsici (Pc), and Septoria tritici (St). The isolated spores were diluted to individual concentrations with a 17% V8 liquid media. For Rhizoctonia solani (Rs) and Pythium irregulare, 1.5 mm mycelial plugs were used in place of spores and ¼ Potato Dextrose Broth (PDB) was used for dilution. The spore concentrations and plug sizes were based on growth curves generated at 48 hours for each pathogen. In a second 96-well plate, the spores or mycelial plugs, media, diluted compound solutions, and controls were combined. Once the compound was added, a true final concentration of compound in each well was measured by an OD600 reading, which adjusted for any compound precipitation that might have occurred in the well. Plate readings were repeated at both 24 and 48 hours. The blank negative control was used as a background subtraction. Additional visual ratings were performed at both 24 and 48 hours for checking on precipitation and confirming efficacy. Visual and OD600 ratings of the compounds at 48 hours were compared to the 2% DMSO negative control, and the percent of pathogen growth inhibition was determined based on those values.

Human ACC2 = Human ACC2 (Homo sapiens, UniProt O00763); assay: In vitro ACC2 inhibition assay (ADP-Glo), human ACC2; assay type: biochemical; settings: 5 nM ACC2, 20 μM ATP, 20 μM acetyl-CoA
Chain of Human ACC2 (O00763 whole entry): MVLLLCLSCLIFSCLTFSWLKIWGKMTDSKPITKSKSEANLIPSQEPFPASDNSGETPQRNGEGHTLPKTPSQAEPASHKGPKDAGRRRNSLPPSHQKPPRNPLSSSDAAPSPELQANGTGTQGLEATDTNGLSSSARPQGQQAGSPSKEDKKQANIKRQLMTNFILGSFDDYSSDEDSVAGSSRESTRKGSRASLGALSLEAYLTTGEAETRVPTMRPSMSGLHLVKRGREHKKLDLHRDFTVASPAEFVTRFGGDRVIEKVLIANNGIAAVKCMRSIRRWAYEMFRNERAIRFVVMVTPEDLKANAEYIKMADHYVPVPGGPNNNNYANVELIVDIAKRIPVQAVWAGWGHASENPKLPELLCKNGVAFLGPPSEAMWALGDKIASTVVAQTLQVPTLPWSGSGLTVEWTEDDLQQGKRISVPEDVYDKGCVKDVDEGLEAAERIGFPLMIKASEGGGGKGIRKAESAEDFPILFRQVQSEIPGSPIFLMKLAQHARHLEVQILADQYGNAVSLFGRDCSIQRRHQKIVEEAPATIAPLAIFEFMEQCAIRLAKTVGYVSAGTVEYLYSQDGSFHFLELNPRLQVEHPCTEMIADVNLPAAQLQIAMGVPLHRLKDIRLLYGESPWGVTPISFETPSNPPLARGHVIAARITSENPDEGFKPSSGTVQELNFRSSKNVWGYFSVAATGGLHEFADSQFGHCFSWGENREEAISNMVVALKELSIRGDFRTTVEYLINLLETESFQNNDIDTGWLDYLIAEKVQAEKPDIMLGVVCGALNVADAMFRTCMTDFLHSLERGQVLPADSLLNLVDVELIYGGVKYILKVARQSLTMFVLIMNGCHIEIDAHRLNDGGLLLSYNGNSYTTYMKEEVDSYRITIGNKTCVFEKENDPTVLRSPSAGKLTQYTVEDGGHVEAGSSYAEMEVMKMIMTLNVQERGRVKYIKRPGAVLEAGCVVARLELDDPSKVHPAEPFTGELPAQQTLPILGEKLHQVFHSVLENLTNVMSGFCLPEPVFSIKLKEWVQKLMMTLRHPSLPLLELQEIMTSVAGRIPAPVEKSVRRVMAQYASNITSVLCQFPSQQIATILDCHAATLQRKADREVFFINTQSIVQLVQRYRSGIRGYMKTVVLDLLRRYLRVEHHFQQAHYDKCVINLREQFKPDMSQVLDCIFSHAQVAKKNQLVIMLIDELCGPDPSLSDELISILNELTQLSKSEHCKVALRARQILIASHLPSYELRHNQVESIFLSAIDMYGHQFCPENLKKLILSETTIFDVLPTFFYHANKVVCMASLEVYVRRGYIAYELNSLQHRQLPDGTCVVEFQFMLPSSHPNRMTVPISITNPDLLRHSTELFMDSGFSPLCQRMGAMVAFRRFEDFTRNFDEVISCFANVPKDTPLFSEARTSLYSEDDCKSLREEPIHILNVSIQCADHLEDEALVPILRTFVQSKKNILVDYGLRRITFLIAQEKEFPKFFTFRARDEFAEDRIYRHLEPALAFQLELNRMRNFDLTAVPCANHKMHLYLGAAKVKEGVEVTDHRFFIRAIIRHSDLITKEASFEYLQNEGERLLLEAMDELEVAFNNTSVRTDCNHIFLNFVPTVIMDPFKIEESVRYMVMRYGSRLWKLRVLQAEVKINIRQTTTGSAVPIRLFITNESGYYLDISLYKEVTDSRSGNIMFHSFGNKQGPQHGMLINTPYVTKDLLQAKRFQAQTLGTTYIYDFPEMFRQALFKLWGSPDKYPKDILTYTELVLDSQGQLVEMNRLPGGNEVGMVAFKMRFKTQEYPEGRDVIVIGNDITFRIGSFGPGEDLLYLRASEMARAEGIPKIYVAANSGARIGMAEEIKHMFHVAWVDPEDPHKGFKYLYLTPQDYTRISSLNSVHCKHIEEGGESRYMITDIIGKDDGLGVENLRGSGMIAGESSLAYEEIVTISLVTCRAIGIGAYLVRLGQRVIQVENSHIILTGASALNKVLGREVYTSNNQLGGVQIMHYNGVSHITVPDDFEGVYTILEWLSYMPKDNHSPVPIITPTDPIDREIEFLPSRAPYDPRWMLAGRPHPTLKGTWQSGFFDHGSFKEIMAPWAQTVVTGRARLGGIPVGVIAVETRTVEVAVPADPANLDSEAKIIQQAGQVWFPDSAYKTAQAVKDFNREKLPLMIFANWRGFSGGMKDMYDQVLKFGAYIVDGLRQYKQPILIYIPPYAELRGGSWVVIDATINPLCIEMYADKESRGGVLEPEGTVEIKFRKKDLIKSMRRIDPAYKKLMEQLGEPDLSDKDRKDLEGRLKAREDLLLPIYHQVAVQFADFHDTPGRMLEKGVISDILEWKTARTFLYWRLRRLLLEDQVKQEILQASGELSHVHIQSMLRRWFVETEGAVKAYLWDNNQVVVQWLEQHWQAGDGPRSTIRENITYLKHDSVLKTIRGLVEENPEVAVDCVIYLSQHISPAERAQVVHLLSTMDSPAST

C. krusei ATCC 6258 = assay: Anti-Fungal Activity Assay (broth microtiter MIC), C. krusei; assay type: cell-based, Candida krusei; settings: Pichia kudriavzevii, ATCC6258, 48 h, 3 replicates; MIC recorded at 48 h; read-out: MIC C. krusei ATCC 6258
Procedure, shortened: as §1

[4] = compound concentration 10 ppm, foliar spray, evaluated 7 days after inoculation
Diplodia maydis (Dm) = assay: Growth inhibition assay of fungal pathogens, Dm; assay type: cell-based; settings: Stenocarpella maydis; 48 hours; read-out: Concentration at 90% Inhibition, Dm
Experimental: as §2

[5] = tested on: Fusarium moniliforme (Fm); assay: Growth inhibition assay of fungal pathogens, Fm; assay type: cell-based; settings: Fusarium verticillioides; 48 hours; read-out: Concentration at 90% Inhibition, Fm
Experimental: as §2

[6] = tested on: Fusarium virguliforme (Fv); assay: Growth inhibition assay of fungal pathogens, Fv; assay type: cell-based; settings: 48 hours, read-out: Concentration at 90% Inhibition, Fv
Experimental: as §2

C. albicans ATCC 90028 = assay: Anti-Fungal Activity Assay (broth microtiter MIC), C. albicans; assay type: cell-based, Candida albicans; settings: Candida albicans, ATCC90028, 48 h, 3 replicates; MIC recorded at 48 h; read-out: MIC C. albicans ATCC 90028
Procedure, shortened: as §1

[7] = tested on: Collectotrichum graminicola (Cg); assay: Growth inhibition assay of fungal pathogens, Cg; assay type: cell-based; settings: 48 hours; read-out: Concentration at 90% Inhibition, Cg
Experimental: as §2

Septoria tritici (St) = assay: Growth inhibition assay of fungal pathogens, St; assay type: cell-based; settings: Zymoseptoria tritici; 48 hours; read-out: Concentration at 90% Inhibition, St
Experimental: as §2

Botrtyis cinerea (Bc) = assay: Growth inhibition assay of fungal pathogens, Bc; assay type: cell-based; settings: 48 hours; read-out: Concentration at 90% Inhibition, Bc
Experimental: as §2

Rhizoctonia solani (Rs) = assay: Growth inhibition assay of fungal pathogens, Rs; assay type: cell-based; settings: 48 hours, read-out: Concentration at 90% Inhibition, Rs
Experimental: as §2

MIC [2] | IC90 [3] | pIC50 (Human ACC2) | MIC (C. krusei ATCC 6258) | IC90 (Diplodia maydis (Dm)) | IC90 [5] | IC90 [6] | MIC (C. albicans ATCC 90028) | IC90 [7] | IC90 (Septoria tritici (St)) | IC90 (Botrtyis cinerea (Bc)) | IC90 (Rhizoctonia solani (Rs)) | SMILES | pest or weed control at 50 ppm [1] | Barley Powdery Mildew Control at 10 ppm [4]
2.1 to 4 µg/mL (≈ 3.5 to 6.66 µM) | > 50 µg/mL | 7.00 to 8.00 | 2.1 to 4 µg/mL (≈ 3.5 to 6.66 µM) | 10 µg/mL (≈ 16.6 µM) | 2 µg/mL (≈ 3.33 µM) | 10 µg/mL (≈ 16.6 µM) | 2.1 to 4 µg/mL (≈ 3.5 to 6.66 µM) | 10 µg/mL (≈ 16.6 µM) | > 50 µg/mL | 2 µg/mL (≈ 3.33 µM) | 2 µg/mL (≈ 3.33 µM) | COc1ccc(F)cc1[C@H](Cn1c(=O)n([C@@H]2CCCN(C(C)C)C2=O)c(=O)c2c(C)c(-n3nccn3)sc21)OCCO [Compound I-75, 1-((R)-2-(5-fluoro-2-methoxyphenyl)-2-(2-hydroxy-ethoxy)ethyl)-3-((R)-1-isopropyl-2-oxopiperidin-3-yl)-5-methyl-6-(2H-1,2,3-triazol-2-yl)thieno[2,3-d]pyrimidine-2,4(1H,3H)-dione] | 50 to 69% | D (provided a compound having <25% control of barley powdery mildew)
2.1 to 4 µg/mL (≈ 3.58 to 6.82 µM) | > 50 µg/mL | 8.00 to 8.70 | 2.1 to 4 µg/mL (≈ 3.58 to 6.82 µM) | 10 µg/mL (≈ 17 µM) | 2 µg/mL (≈ 3.41 µM) | 2 µg/mL (≈ 3.41 µM) | 2.1 to 4 µg/mL (≈ 3.58 to 6.82 µM) | 2 µg/mL (≈ 3.41 µM) | > 50 µg/mL | 2 µg/mL (≈ 3.41 µM) | 2 µg/mL (≈ 3.41 µM) | COc1ccc(F)cc1[C@H](Cn1c(=O)n([C@H]2CCN(C(C)C)C2=O)c(=O)c2c(C)c(-n3nccn3)sc21)OCCO [Compound I-84, 1-((R)-2-(5-fluoro-2-methoxyphenyl)-2-(2-hydroxy-ethoxy)ethyl)-3-((S)-1-isopropyl-2-oxopyrrolidin-3-yl)-5-methyl-6-(2H-1,2,3-triazol-2-yl)thieno[2,3-d]pyrimidine-2.4(1H,3H)-dione] | 50 to 69% | D (provided a compound having <25% control of barley powdery mildew)
2.1 to 4 µg/mL (≈ 3.58 to 6.82 µM) | > 50 µg/mL | 7.00 to 8.00 | 2.1 to 4 µg/mL (≈ 3.58 to 6.82 µM) | 2 µg/mL (≈ 3.41 µM) | 2 µg/mL (≈ 3.41 µM) | 2 µg/mL (≈ 3.41 µM) | 2.1 to 4 µg/mL (≈ 3.58 to 6.82 µM) | 2 µg/mL (≈ 3.41 µM) | > 50 µg/mL | 2 µg/mL (≈ 3.41 µM) | 2 µg/mL (≈ 3.41 µM) | COc1ccc(F)cc1[C@H](Cn1c(=O)n([C@@H]2CCN(C(C)C)C2=O)c(=O)c2c(C)c(-n3nccn3)sc21)OCCO [Compound I-85, 1-((R)-2-(5-fluoro-2-methoxyphenyl)-2-(2-hydroxy-ethoxy)ethyl)-3-((S)-1-isopropyl-2-oxopyrrolidin-3-yl)-5-methyl-6-(2H-1,2,3-triazol-2-1)thieno[2,3-d]pyrimidine-2,4(1H,3H)-dione] | 70 to 84% | C (provided a compound having from 25 to 49% control of barley powdery mildew)

From patent US20190330224A1, “ACC INHIBITORS AND USES THEREOF” (Gilead Apollo, LLC, priority 2015, published 2019)
